{"source": "patent US7144733B2", "about": "“Bio-synthetic photostimulators and methods of use” (Sloan-Kettering Institute for Cancer Research, priority 2001, dated 2006)", "key": {"Xenopus oocytes": {"system": "Xenopus oocytes", "test": "Light-evoked photocurrents in voltage-clamped Xenopus oocytes expressing Drosophila phototransduction proteins", "type": "cell-based", "protocol": "(§1) Synthetic all-trans retinal (Sigma) was diluted, from a 100-mM stock in DMSO, to 40 μM in the appropriate extracellular recording solution (see below) and allowed to bind to NinaE for 15 min in the dark. A mechanically shuttered (Uniblitz, Vincent Associates) Lambda DG-4 rapid wavelength changer (Sutter Instruments) delivered <2 mW of stimulating light without ultraviolet and infrared (E400LP, Chroma; Hot Mirror, Newport) components through 20×/0.4 (oocytes) or 40×/0.8 W (neurons) Zeiss Achroplan objectives. In some experiments, a short pre-illumination with red light (E600LP plus HQ625/40, both from Chroma) preceded the white-light stimulus. Light source and shutter were controlled through pClamp 8.0 (Axon Instruments) and MetaFluor 4.5 (Universal Imaging).\nStage VI oocytes were microinjected with the specified mRNA mixtures, which were adjusted to keep the doses of individual messages constant at 2–4 fmol/oocyte. Photocurrents were recorded at −80 mV with a two-electrode voltage-clamp amplifier (Axoclamp-2B, Axon Instruments) 2–4 days after mRNA injection. Electrodes (2–3 MΩ) were filled with 3 M KCl; the extracellular recording solution (Barth's Saline) contained, in mM, 87.5 NaCl, 2 KCl, 2.4 NaHCO3, 2 CaCl2, 1 MgCl2, 5 Tris-HCl, pH 7.2. Signals were externally amplified (CyberAmp 380, Axon Instruments) before digitization at 100 Hz (Digidata 1200, Axon Instruments). To block IP3-sensitive Ca^2+ stores where indicated, 20 μM xestospongin C (Gafni et al., 1997; Calbiochem) was present throughout the experiment, beginning with the retinal load.\nUnliganded NinaE in the membrane of voltage-clamped oocytes was reconstituted in the dark with 40 μM synthetic all-trans retinal, to form a metarhodopsin-like intermediate that could be further photoconverted (Hillman et al., 1983; Kiselev and Subramaniam, 1994; Ranganathan and Stevens, 1995) to rhodopsin. […]"}, "hippocampal neurons": {"system": "hippocampal neurons", "test": "Photostimulation of chARGed hippocampal neurons in primary culture, whole-cell current clamp", "type": "cell-based", "conditions": "50 μM AP-5 plus 10 μM CNQX together; n=5 neurons", "protocol": "as §1\nHippocampal neurons obtained from E19 rats were grown in dissociated cultures (Yuste, Miller et al. “Synapto-pHluorins: chimeras between pH-sensitive mutants of green fluorescent protein and synaptic vesicle membrane proteins as reporters of neurotransmitter release,” Methods Enzymol 522–46 (2000)) and transfected with a calcium phosphate precipitate (pH 7.08) formed from a 1:1 mixture of CsCl-banded pChARGe-1 and pChARGe-2. Neurons were exposed to 4.2 μg/cm^2 of precipitated DNA for 20 minutes. Transfections were done on day 8 after plating, recordings on days 6–10 after transfection. Neurons were identified under DIC and epifluorescence illumination (to distinguish transfected from untransfected cells; FIG. 3) and placed under whole-cell current clamp before reconstitution of NinaE with retinal. Patch pipettes (˜2.5 MΩ) contained, in mM, 120 K-gluconate, 10 KCl, 5 ATP, 0.3 GTP, and 10 K-HEPES, pH 7.2. The extracellular recording solution contained, in mM, 119 NaCl, 2.5 KCl, 2 CaCl2, 1 MgCl2, 30 glucose, 25 Na-HEPES, pH 7.4. Membrane potentials were recorded with an Axoclamp-2B amplifier (Axon Instruments) in bridge mode and digitized at 5 kHz (Digidata 1200, Axon Instruments).\nFor intracellular recordings of light-evoked electrical activity, neurons were placed under whole-cell current clamp before reconstitution of NinaE with retinal. […] Exposure to white light increased the frequency of action potentials dramatically (FIGS. 4, A–D, and FIG. 5). Peak firing frequencies of 7.5 Hz (evaluated in sliding 2-s windows), equal to those generated by the direct injection of 200–250 pA of sustained depolarizing current into transfected and untransfected neurons, appeared after latency periods of a few hundred ms to several tens of s (n=18 neurons). […]"}}, "note": "“Also recorded” adds a separate entry of the source.", "data": [{"smiles": "CC1=C(/C=C/C(C)=C/C=C/C(C)=C/C=O)C(C)(C)CCC1", "note": "[all-trans retinal]", "values": [{"measurement": "dependence of light-evoked current responses on reconstitution of NinaE with retinal", "setting": "Xenopus oocytes; 40 μM all-trans retinal, 15 min in the dark, n=9 oocytes", "value": "required"}, {"measurement": "photocurrent over time after a single retinal load, in the absence of exogenous retinal", "setting": "Xenopus oocytes; NinaE reconstituted with 40 μM all-trans retinal for 15 min, then retinal-free perfusion for hours, n=8 oocytes", "value": "no attenuation"}]}, {"smiles": "NC(CCCP(=O)(O)O)C(=O)O", "note": "(racemic) [AP-5, D,L-2-amino-5-phosphonovaleric acid]", "values": [{"measurement": "EPSPs in the membrane potential record under glutamate receptor block", "setting": "hippocampal neurons", "value": "vanished; also recorded: elimination"}, {"measurement": "light-induced action potentials under glutamate receptor block", "setting": "hippocampal neurons", "value": "persisted"}]}, {"smiles": "N#Cc1cc2c(cc1[N+](=O)[O-])=NC(=O)C(=O)N=2", "note": "[CNQX, 6-cyano-7-nitroquinoxaline-2,3-dione]", "values": [{"measurement": "EPSPs in the membrane potential record under glutamate receptor block", "setting": "hippocampal neurons", "value": "vanished; also recorded: elimination"}, {"measurement": "light-induced action potentials under glutamate receptor block", "setting": "hippocampal neurons", "value": "persisted"}]}, {"smiles": "C1CCC[C@H]2CCCN3CC[C@@H](CCCCCC[C@@H]4CCCN5CC[C@@H](CC1)O[C@@H]45)O[C@@H]23", "note": "[xestospongin C]", "values": [{"measurement": "light-evoked current responses in the presence of xestospongin C", "setting": "Xenopus oocytes; 20 μM xestospongin C present throughout, oocytes expressing 10 photoreceptor proteins, n=5 oocytes", "value": "inhibited"}]}]}
